Measured values from PubChem BioAssay AID1288 (Columbia University Molecular Screening Center, 2008).
The source made the active and inactive calls. No rule for the calls is given here.

Experiment: inhibitors of TNFa-induced E-selectin expression, confirmation, imaging, retest plus dose response, cell count (AID 1288);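 also: 0% = stimulated vehicle wells and 100% = unstimulated vehicle wells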
Conditions: human endothelial cells, TNFa-induced E-selectin, imaging; at 2 µM; hits give high values

Row | SMILES | inhibition
1 | COc1ccc2[nH]c(C)c(CCN3C(=O)C4C5C=CC(C5)C4C3=O)c2c1 (centres undefined) | 9.54% (inactive)
2 | COc1ccc(Br)cc1C(=O)O | -3.94% (inactive)
3 | O=C(NNc1nc2ccccc2s1)Nc1ccccc1 | 5.88% (inactive)
4 | CCN1C(=O)/C(=C\c2cn(-c3ccccc3)nc2-c2cccnc2)SC1=S | 28% (inactive)
5 | Cn1c(CCNC(=O)C2CCCCC2)nc2cc(NC(=O)c3cccs3)ccc21 | 3.87% (inactive)
6 | COc1ccc(C2N=C(N)N=C(N)N2c2ccccc2)cc1OC (centres undefined) | 23% (inactive)
7 | Cc1c(NC(=O)c2c(N)n(-c3ccccc3)c3nc4ccccc4nc23)c(=O)n(-c2ccccc2)n1C | 4.61% (inactive)
8 | C=CCn1c(SCC(=O)NCc2ccccc2)nnc1-c1ccccc1O | -0.67% (inactive)
9 | CC(C)C(=O)Nc1cc(=O)[nH]c2ncnn12 | 10.9% (inactive)
10 | COc1ccc(C)cc1-n1nnnc1SCC(=O)Nc1cccnc1Cl | -16.5% (inactive)
11 | Cc1nc2c(ccc3nc(NC(=O)c4ccc5c(c4)OCCO5)sc32)s1 | 3.48% (inactive)
12 | Cc1ccc(-c2cc(NC(=O)CCl)n(-c3ccccc3)n2)cc1 | -2.61% (inactive)
13 | CCC(C)Nc1nc(OC(C(F)(F)F)C(F)(F)F)nc(OC(C(F)(F)F)C(F)(F)F)n1 (centres undefined) | 9.28% (inactive)
14 | CCn1cc(C(=O)O)c(=O)c2cc(F)c(N3CCN(C(=S)NC(=O)c4ccc(Br)cc4)CC3)cc21 | 7.45% (inactive)
15 | COc1ccc(-n2nnnc2SCc2nc(N)nc(N3CCOCC3)n2)cc1 | 33.7% (inactive)
16 | Cc1cc(=O)[nH]c(SCC(=O)NCc2ccco2)n1 | 5.37% (inactive)
17 | CCC(C)(C)n1nnnc1C(c1ccc(OC)c(OC)c1)N1CCN(c2ccccc2)CC1 (centres undefined) | 2.72% (inactive)
18 | O=C(COc1ccc(/C=N/NC(=O)C(=O)N2CCCCCC2)cc1)Nc1ccccc1Cl | 8.09% (inactive)
19 | O=C1c2cccc(OCC(=O)N3CCCc4ccccc43)c2CCN1Cc1ccc(Br)cc1 | -5.27% (inactive)
20 | Cc1ccc(NC(=O)Nc2ccc3c(c2)N(C)C(=O)CS3)nc1 | 3.21% (inactive)
21 | CC(C)(C)c1ccc(OCCCNCc2ccccc2)cc1 | -6.22% (inactive)
22 | N/C(Cc1cccc2ccccc12)=N\OC(=O)c1ccc2c(c1)OCO2 | 6.4% (inactive)
23 | Cc1ccc(CNc2ccc(S(=O)(=O)N3CCOCC3)cc2[N+](=O)[O-])cc1 | 0.77% (inactive)
24 | CCCCc1c(O)nc(SCC(=O)Nc2ccc3c(c2)CCC3)[nH]c1=O | 14.6% (inactive)
25 | CCCCCCOC(=O)/C=C/c1c(C)[nH]c(=O)[nH]c1=O | 30.8% (inactive)

Row | SMILES | inhibition
26 | Fc1ccc(-c2n[nH]c(=S)n2/N=C/c2c[nH]c3ccccc23)cc1 | 27.9% (inactive)
27 | O=c1cc(-c2ccc(F)cc2)oc2ccccc12 | 0.15% (inactive)
28 | Cc1ccc(C)c(NC(=O)CSc2nnc([C@@H](N)Cc3ccccc3)o2)c1 | 13.6% (inactive)
29 | COC(=O)CSc1nc(N)nc(C)c1Br | 3.71% (inactive)
30 | Cc1cc(SCC(=O)c2cccs2)nc2ccccc12 | 8.62% (inactive)
31 | C=CCNS(=O)(=O)c1nc(C)c(Cl)c(C)c1C#N | 0.74% (inactive)
32 | CCOC(=O)c1c(NC(=O)CSc2nnc(C)c(=O)[nH]2)sc(C)c1C | 8.64% (inactive)
33 | C=CCN1C(c2ccccc2)=CS/C1=C(\C#N)c1nnc2n1CCCCC2 | 34% (inactive)
34 | Cc1noc(C)c1S(=O)(=O)Nc1ccc(C(=O)NC2CCCCC2C)cc1 (centres undefined) | 22.8% (inactive)
35 | O=C(O)C(=O)/C(=C\c1ccccc1)c1ccc2ccccc2n1 | 23.7% (inactive)
36 | Cc1nc2c(sc3nc4c(cc32)COC(C)(C)C4)c(=O)o1 | 6.35% (inactive)
37 | CC(C(=O)O)C1SC(=O)NC1=O (centres undefined) | 12.7% (inactive)
38 | CC(C)(CO)NCC(O)Cn1cc(C=O)c2ccccc21 (centres undefined) | -5.31% (inactive)
39 | COc1ccccc1OCCn1cc(C(=O)c2ccco2)c2ccccc21 | 12.3% (inactive)
40 | N#Cc1cc2sc3nnc(-c4ccncc4)n3c2cc1C#N | 24.9% (inactive)
41 | CC(=O)C1=C(C)NC(SCc2cccc3ccccc23)=C(C#N)C1c1ccco1 (centres undefined) | 5.13% (inactive)
42 | N=C(N)SCc1nc2ccccc2c(=O)n1-c1ccccc1 | 9.67% (inactive)
43 | COc1cccc(S(=O)(=O)Nc2ccc(C(=O)N3CCN(C(=O)c4ccco4)CC3)cc2)c1 | 31.3% (inactive)
44 | N#Cc1ccsc1NC(=O)COC(=O)c1ccc2ccccc2c1 | 5.46% (inactive)
45 | COc1ccccc1-c1nc(-c2ccc(C)nc2OC)no1 | 0.65% (inactive)
46 | CN(c1ccc(C(=O)NCC2CCCO2)cc1)S(C)(=O)=O (centres undefined) | 6.07% (inactive)
47 | O=C(Nc1cccc(-c2cn3ccccc3n2)c1)c1cccc(Cl)c1 | 8.96% (inactive)
48 | COc1ccc(OC)c(CN2CCN(C(=O)COc3cccc(C)c3)CC2)c1 | 9.14% (inactive)
49 | CCCn1c(CN2CCN(c3cccc(Cl)c3)CC2)nc2c1c(=O)n(C)c(=O)n2C | 7.73% (inactive)
50 | O=C(Nc1cc2ccccc2oc1=O)c1ccccc1 | 7.06% (inactive)

Row | SMILES | inhibition
51 | CCN(CC)S(=O)(=O)c1ccc2[nH]c(=O)cc(C(=O)Nc3cccc(C(C)=O)c3)c2c1 | 8.83% (inactive)
52 | Oc1ccc(-c2csc(-c3ccccc3)n2)cc1O | 35.9% (inactive)
53 | COCCCNC(=O)CN1C(=O)c2ccccc2C1=O | 5.47% (inactive)
54 | COc1cc(-c2noc(CCC(=O)Nc3cccnc3)n2)cc(OC)c1OC | 33.6% (inactive)
55 | Cc1nc2ccc(NC(=O)C3CCN(S(=O)(=O)c4cccs4)CC3)cc2s1 | 18.1% (inactive)
56 | COc1ccc(-c2noc(CCC(N)=O)n2)cc1OC | 16.5% (inactive)
57 | Cn1c(SCc2ccc(C#N)cc2)nnc1-c1cccc(Cl)c1 | 7.7% (inactive)
58 | CCOC(=O)C1C(=O)CC(C)(O)C(C(=O)OCC)C1c1ccccc1 (centres undefined) | -2.22% (inactive)
59 | COC(=O)c1nnn(-c2ccc(Cl)c(Cl)c2)c1C(=O)OC | 11.3% (inactive)
60 | O=c1cc(C(F)F)oc2c1ccc1ccccc12 | -6.72% (inactive)
61 | CCc1ccc(CN(C)C(=O)c2cc(COc3c(F)cccc3F)on2)cc1 | 13% (inactive)
62 | Cc1cccc(NC(=O)CCSc2nc(C)cc(C)n2)c1 | 4.57% (inactive)
63 | C/C(=N\NC(=O)CC1N=C(Cc2ccccc2)NNC1=O)c1ccc(C)cc1 (centres undefined) | 3.58% (inactive)
64 | COc1ccc(/C(C)=N/OCC(=O)N2CC3(C)CC2CC(C)(C)C3)cc1 (centres undefined) | 17.2% (inactive)
65 | COc1ccc(C(=O)/C=C/c2ccc(F)cc2)c(OC(=O)c2ccc([N+](=O)[O-])cc2)c1 | 5.11% (inactive)
66 | CC1=Nc2ccccc2/C1=C/c1c(N)n2c(S(=O)(=O)CC(C)C)nsc2nc1=O | 2.29% (inactive)
67 | CCN1CCN(Cc2cc(OC)c(OC)cc2[N+](=O)[O-])CC1 | 12.6% (inactive)
68 | CC(C)C(C(=O)O)N1CCS(=O)(=O)CC1 (centres undefined) | 7.68% (inactive)
69 | CCOC(=O)c1ccccc1NC(=O)c1ccc(N(C)S(C)(=O)=O)cc1 | 15.2% (inactive)
70 | COc1cccc(/C=C/C(=O)OCC(=O)Nc2ccc(Cl)c(S(=O)(=O)N(C)C)c2)c1 | 2.19% (inactive)
71 | COc1ccc(C(=O)C2(C)N(O)C(C)C(c3cccs3)=[N+]2[O-])cc1 (centres undefined) | 9.94% (inactive)
72 | CCS(=O)(=O)N1CCCC(C(=O)NCc2cccc(OC)c2)C1 (centres undefined) | 12.7% (inactive)
73 | O=C(CSc1ncccn1)NCc1ccccc1Cl | 32.9% (inactive)
74 | Cc1ccc(C)n1-c1cccc(NC(=O)c2ccccc2)c1 | 0.87% (inactive)
75 | [O-][n+]1onc2c1C(N1CCOCC1)CCC2N1CCOCC1 (centres undefined) | 5.99% (inactive)

Row | SMILES | inhibition
76 | CCOC(=O)N1CCN(C(=O)COc2cccc3c2CCN(Cc2cccc(C)c2)C3=O)CC1 | 8.76% (inactive)
77 | O=C(Nc1ccc(Cl)cc1)c1cc2nc(-c3ccco3)cc(C(F)(F)F)n2n1 | 14.3% (inactive)
78 | CC1CC1c1ccc(/C=C(\C#N)C(=O)Nc2ccc(Cl)cc2)o1 (centres undefined) | 7.94% (inactive)
79 | Cc1cc(NC(=O)CCc2ccc(S(=O)(=O)N3CCOCC3)cc2)n(-c2ccccc2)n1 | -9.97% (inactive)
80 | O=C(c1cccc(F)c1)N1CCN(c2cc(N3CCCCC3)c(F)cc2[N+](=O)[O-])CC1 | 4.49% (inactive)
81 | O=C(c1cccs1)N(C(=O)c1cccs1)c1ccc(Br)cn1 | 15.4% (inactive)
82 | CS(=O)(=O)c1ccc(Cl)c(NC(=O)c2ccc3ccccc3c2)c1 | 4.97% (inactive)
83 | O=C(CCl)N1N=C(c2ccco2)CC1c1cccs1 (centres undefined) | 26.9% (inactive)
84 | O=C1CC(c2ccccc2)n2nc(NC(=O)C3CCCO3)nc2N1 (centres undefined) | -5.55% (inactive)
85 | CCOC(=O)C1CCCN(C(=O)COC(=O)c2cc(=O)c3ccccc3o2)C1 (centres undefined) | 3.09% (inactive)
86 | O=S1(=O)CCN(C(CCO)c2cccc(C(F)(F)F)c2)CC1 (centres undefined) | 4.23% (inactive)
87 | COc1ccc(S(=O)(=O)Nc2ccc(C)cc2)cc1N(C)S(=O)(=O)c1ccc(Cl)cc1 | 3.82% (inactive)
88 | CCOC(=O)c1c(NC(=O)CSc2nnc(-c3ccccc3)n2CC)sc(C(C)=O)c1C | 8.92% (inactive)
89 | Cc1nn(-c2ccccc2)c2sc(C(=O)O)cc12 | 2.23% (inactive)
90 | S=C(NCc1cccs1)Nc1cccc(Cl)c1Cl | 8.76% (inactive)
91 | COC(=O)C1=NN(c2cccc(C)c2)C2C(=O)N(c3ccccc3OC)C(=O)C12 (centres undefined) | 8.46% (inactive)
92 | COc1ccc(N2C(=O)CCC2(C#N)c2ccc(Br)cc2)cc1 (centres undefined) | -2.45% (inactive)
93 | COC(=O)c1cnc(SCc2ccc(C)cc2)n1C | 15.2% (inactive)
94 | COc1cccc(-n2c(SC3CCOC3=O)nc3ccccc3c2=O)c1 (centres undefined) | 27.9% (inactive)
95 | CCCNc1ncnc2sc(C)c(C)c12 | 12.7% (inactive)
96 | CS(=O)(=O)C1=NSC2=NC(=O)/C(=C\c3cccn3-c3ccc(Cl)cc3)C(=N)N21 | 17.3% (inactive)
97 | Cc1ccccc1Cn1ccc(NC(=O)c2cnn3c2NC(c2ccccc2)CC3C(F)(F)F)n1 (centres undefined) | 2.9% (inactive)
98 | c1ccc(-n2c(Sc3cnccn3)nnc2-c2cccs2)cc1 | 8.66% (inactive)
99 | Cc1cc(NCCN2CCCCC2)n2c(nc3ccccc32)c1C#N | 11.7% (inactive)
